Results published in patent US9687558B2, “Antitumoral bioconjugates of hyaluronic acid or its derivatives obtained by indirect chemical conjugation, and their use in the pharmaceutical field” (priority 2005, dated 2017).

Columns and labels:
[1] = tested on: colic adenocarcinoma HT29 cells; experiment: Cytotoxicity test in vitro on HT29 cells, MTT colorimetric assay; type: cell-based; conditions: 48 hours of contact, HA derivatives in 5% glucosated solution, SN38 in DMSO
Procedure: Evaluation of the Antiproliferative Activity of the Ester Conjugate HA/SN38 having a Substitution Degree Equal to 10% and 15%, on the Cellular Line of Colic Adenocarcinoma HT29
Aliquots of the derivatives obtained from examples 1 and 2 are characterized by means of a cytotoxicity test in vitro on a line of colic tumoral cells called HT29. The comparison was effected with SN38 dissolved in DMSO. The HA derivatives are solubilized in a glucosated solution at 5% at a concentration of 5 mg/ml. The test is effected by depositing on a plate with 96 cavities, 3000 cells per cavity; after 24 hours of incubation at 37° C., the cells are put in contact with the solutions and after a further 48 hours the cell vitality is determined by means of a MTT colorimetric assay (Dezinot F. et al., J. Immunol Methods, 1986, 22(89):271-277).
The proliferation curves referring to the two ester conjugates of HA are shown in the graphs (on the left the cytotoxic activity of the derivative at 15%, on the right that at 10%), see FIG. 4.
By comparing the data of EC50 with SN38 in dimethylsulfoxide (DMSO) the following results are obtained: […]

[2] = Mathijssen R H et al., Clin Cancer Res, 2001; cited from earlier work
[3] = tested on: DHD/K12 cells (MDR colon-rectum adenocarcinoma model); experiment: Cytotoxicity test in DHD/K12 cells, LIVE/DEAD Cell Vitality Assay; type: cell-based, rat; conditions: 0.25 μM, 48 hours of treatment
Procedure: The cellular line used derives from rats of the BDIX strain treated with 1,2-dimethylhydrazine.
In order to evaluate the degree of cellular vitality the LIVE/DEAD Cell Vitality Assay (Molecular Probes) was used, which allows metabolically active cells to be distinguished from dead cells: the latter emit green fluorescence at a nuclear level whereas live cells emit red fluorescence localized on the cellular membrane and in the cytoplasm. After colouring, the cells were analyzed using a confocal microscope and the percentage of live/dead cells was evaluated by counting a minimum of 500 live or dead cells per sample.

| Structure (SMILES) | EC50 [1] [nM] | antitumoral activity relative to commercial prodrug (Irinotecan) [2] [times] | cytotoxic effect at low concentration [3] |
| --- | --- | --- | --- |
| CCc1c2c(nc3ccc(O)cc13)-c1cc3c(c(=O)n1C2)COC(=O)[C@]3(O)CC [SN38 in DMSO, SN38] | 5 | 100 to 1000 |  |
| COc1cccc2c1C(=O)c1c(O)c3c(c(O)c1C2=O)C[C@@](O)(C(=O)CO)C[C@@H]3O[C@H]1C[C@H](N)[C@H](O)[C@H](C)O1 [doxorubicin] |  |  | does not have any cytotoxic effect |
